Data set [1] has as its system EMRSA15. Put plainly: MIC, microdilution broth method. The conditions noted are these: EMRSA15; in µg/mL. Format: cell-based, Staphylococcus aureus. A general note: Dilution methods test growth across graded concentrations, often in twofold steps.
The test system of data set [2] is EMRSA16. Put plainly: MIC, microdilution broth method. It counts as cell-based, Staphylococcus aureus. The settings on record: EMRSA16.
In data set [3] the test system is S. aureus SA 238. Nature of the data set: MIC, MDR strains with target mutations. It counts as cell-based.
The subject of data set [4] is S. aureus SA 215. Nature of the data set: MIC, MDR strains with target mutations. It counts as cell-based. The conditions noted are these: in µg/mL.
Data set [5] concerns S. aureus SA 454. Put plainly: MIC, MDR strains with target mutations. It counts as cell-based.
The test system of data set [6] is S. aureus SA 282. Put plainly: MIC, MDR strains with target mutations. It counts as cell-based.
Data set [7] deals with S. aureus SA 275. Put plainly: MIC, MDR strains with target mutations. Format: cell-based. The conditions noted are these: S. aureus SA 275 (gyrA, 84: S => V).
The test system of data set [8] is S. aureus SA 046. Nature of the data set: MIC, MDR strains with target mutations. It counts as cell-based.
Data set [9] concerns S. aureus SA275 (gyrA, 84: S => L). Put plainly: MIC, MDR strains with target mutations. Format: cell-based. The settings on record: Table 11 second entry.
The subject of data set [10] is S. aureus SA 105. Format: cell-based. The settings on record: in µg/mL.
The test system of data set [11] is multidrug resistant strains. Nature of the data set: Reserpine growth assay in several multidrug resistant strains. Format: cell-based. The conditions noted are these: FIG. 27.
Protocol: Reserpine was added at a final concentration of 10 g/mL (made up at 40 μg/mL in TSB, 50 μL per well). The bacteria were added at an OD of 0.01 in TSB (100 μL/well). The plate was a normal clear plate as used for MICs. OD was read every 30 minutes for 9 hours (the literature states 7 hours, but this is strain-dependent). Blanks of TSB and water were added to ensure no infections were present.
In data set [12] the test system is Staphylococcus aureus ATCC29213. Nature of the data set: Murine model of thigh infection (neutropenic ICR mice). The conditions noted are these: for decrease of thigh bacterial burden compared to vehicle group: 8 h and 14 h post infection. From the text:
40 Male mice used in these study were supplied by Charles River UK and were specific pathogen free. The strain of mouse used was Hsd:ICR (CD-1®), which is a well characterized outbred strain. Mice were 11-15 g on receipt at Evotec's facility and were allowed to acclimatize for minimum of 7 days prior to infection. Mice were approximately 28 g at the start of the study. Mice were housed in sterile individual ventilated cages exposing animals at all times to HEPA filtered sterile air. Mice had free access to food and water (sterile) and had sterile aspen chip bedding. The room temperature was 22° C.±1° C., with a relative humidity of 50-60% and maximum background noise of 56 dB. Mice were exposed to 12 hour light/dark cycles with dawn/dusk phases.
All mice were rendered neutropenic by immunosuppression with cyclophosphamide at 150 mg/kg 4 days before infection and then 100 mg/kg 1 day before infection administered by intraperitoneal injection. The immunosuppression regime leads to neutropenia starting 24 hours post administration of the first injection, which continues throughout the study. Mice were infected approximately 24 hours after the second dose of immunosuppressive agent.
Staphylococcus aureus ATCC29213 was used for the study.
Whilst still under anaesthesia mice were administered a single dose of buprenorphine (0.03 mg/kg) subcutaneously for pain relief.
Test articles and comparator were prepared in stock solutions at 10× concentration as described in Table 20. The stock solutions were prepared in aliquots (1 aliquot per time of dosing) and frozen at −20° C. The solutions were thawed and then diluted in water just before dosing to obtain the appropriate concentration of 5 mg/mL or 2 mg/mL for oral administration at 10 mL/kg of the dose of 50 mg/kg or 20 mg/kg respectively (Table 20). 10% DMSO in water was used as the vehicle
After sacrifice of animal, both posterior thighs were removed, weighed, then homogenised in 2 mL PBS using a Precellys bead beater and the homogenates individually quantitatively cultured on CLED agar to determine the bacterial burdens.
The data from the culture burdens were analysed using appropriate non-parametric statistical models (Kruskal-Wallis using Conover-Inman to make all pairwise comparisons between groups) with StatsDirect software v. 2.7.8., and compared to pre-treatment and vehicle controls.

The nature of data set [13]: Single dose pharmacokinetics study, oral and intravenous, blood and urine. Format: in vivo. The conditions noted are these: mouse; for Cmax: read-out: Co/Cmax. The protocol: ICR breed Mice (CD-1® IGS mice) were used in these studies and was supplied by Charles River (Margate UK) and. The mice were allowed to acclimatise for at least 7 days before starting the study. Treatments was administered by oral route or intravenous route according to the table below. For the PK study, 12 mice for each compound for oral route and 12 mice per compound for the intravenous route was treated. Mice was sequentially bled from a caudal vein into a 20 μL capillary (by agreement containing an anticoagulant) at different time as indicated in table below and a terminal bleed by cardiac puncture at 8 h after administration. Samples collected by capillary was directly transferred into a 96 well and mixed with 20 μL of water, then frozen and store at −80° C. until bioanalysis. Mice for urine collection was housed singly in metabolic cages and urine collected at 0-1, 1-2, 2-4 h and 4-8 h post administration. Urine removed from the collection vessels in the metabolic cages and were frozen and store at −80° C. until bioanalysis. 12 mice were used for urine collection. […] A compound specific LC-MS/MS method was developed for each test compound and samples was quantified using matrix matched calibrators. Samples was prepared for bio-analysis via protein precipitation. Concentration vs time data and non-compartmental analysis was utilised to determine relevant PK parameters e.g. CL, Vss, t1/2, AUCinf AUCo-t, Cmax, tmax, % F, % dose in urine and CLR.

Data set [14] has as its system VRE12201. Put plainly: MIC, microdilution broth method. It counts as cell-based, E. faecalis. The conditions noted are these: VRE12201; Gram-positive; in µg/mL.
For data set [15], the system named is S. aureus SA 318. Format: cell-based.
Data set [16] has as its system S. aureus SA 388. Format: cell-based.
Data set [17] deals with E. faecium EF 205. It counts as cell-based.
The test system of data set [18] is E. faecalis EF 602. Format: cell-based.
The subject of data set [19] is S. aureus USA300. Put plainly: MIC. It counts as cell-based. The conditions noted are these: Staphylococcus aureus.
Data set [20] deals with S. aureus SH1000. Nature of the data set: MIC. The settings on record: Staphylococcus aureus. Format: cell-based.
Data set [21] deals with KP13368. Put plainly: MIC, microdilution broth method. It counts as cell-based. The conditions noted are these: Normal (without PMBN), in µg/mL.
Data set [22] has as its system AYE. Put plainly: MIC, microdilution broth method. Format: cell-based, Acinetobacter baumannii. The settings on record: Normal (without PMBN), in µg/mL.
Data set [23] concerns EC12923. Put plainly: MIC, microdilution broth method. It counts as cell-based. The settings on record: EC12923; Normal (without PMBN); in µg/mL.
Where [24] appears, read: ICR (CD-1 IGS), in vivo, iv, 5 mg/kg.
Where [25] appears, read: ICR (CD-1 IGS), in vivo, po, 20 mg/kg.
Setting [26] is: ICR (CD-1 IGS), in vivo, iv, 5.0 mg/kg, blood, Composite Mean.

In brackets after ≈: the same amount, converted by molar mass. Several values for one entry are separate records, joined by “and”; a condition that tells them apart may be missing. Equal values may be shown once. Read-outs that look alike come from different tables or passages of the source. Bounds are passed on as bounds.

As a reminder, the AUC(0-inf) is total exposure, with the tail of the curve extrapolated. Lower therefore signals less exposure. On to `C[C@H]1COc2c(N3CC[C@@H](Nc4ncccn4)C3)c(F)cc3c(=O)c(C(=O)O)cn1c23` [KSN-L22, (S)-9-fluoro-3-methyl-7-oxo-10-((R)-3-(pyrimidin-2-ylamino)pyrrolidin-1-yl)-2,3-dihydro-7H-[1,4]oxazino[2,3,4-ij]quinoline-6-carboxylic Acid], for which the MIC was 0.5-1 in data set [1]; 1 mg/L (≈ 2.35 µM) in data set [2]; 1 mg/L (≈ 2.35 µM) in data set [3]; 1 in data set [4]; 1 mg/L (≈ 2.35 µM) in data set [5]; 1 mg/L (≈ 2.35 µM) in data set [6]. Also, the MIC in data set [7] was 1 mg/L (≈ 2.35 µM); in [8] it was 1 mg/L (≈ 2.35 µM); in [9], 1 mg/L (≈ 2.35 µM); in [10], 1. Moreover, in data set [11], the “efflux from the bacteria (reserpine growth assay)” value was “reduced efflux”. In addition, in data set [12] (20 and 50 mg/kg, 18 h post infection), the “thigh bacterial burden, result in words” value is given as “statistically significant reduction of bacterial load”. The clearance in [13] (ICR (CD-1 IGS), in vivo, iv, 5.0 mg/kg, blood, Composite Mean, read-out: Blood CL) was found to be 0.75 L/h/kg. The total exposure AUC(0-inf) in [13] (setting [24]) stood at 6.69 µg·h/mL; in data set [13] (setting [25]), 13.2 µg·h/mL. Further, the “Bioavailability (%) Using AUCinf” value in [13] (setting [25]) was 49.3%. Moreover, in data set [13] (setting [25]), the “Bioavailability (%) Using AUCo. t” value is 32.0%. Moreover, the CL_F in data set [13] (setting [25]) came out at 1.58 L/h/kg. For the same molecule, the T1/2 in data set [13] (PO, 20.0 mg/kg, blood, Mean) is on record as 5.1 h. This molecule showed a Vdss in data set [13] (iv, 5.0 mg/kg, blood, Composite Mean) of 1.4 L/kg.

One may read the half-life as how long it takes for the measured level to halve. A lower half-life goes with rapid decline. As a reminder, the AUC is the area under the concentration-time curve, a measure of exposure. A higher AUC goes with more exposure. Broadly, the MRT is a mean duration of stay, worked out from the concentration-time curve. As usually defined, the Tmax is the time at which the peak concentration occurs. Turning to `C[C@H]1COc2c(N3CCN(C)CC3)c(F)cc3c(=O)c(C(=O)O)cn1c23` [Levofloxacin, levofloxacin], the MIC was 16 mg/L (≈ 44.3 µM) in data set [2] (Gram-positive); 0.5-1 in data set [14]; 32 mg/L (≈ 88.6 µM) in data set [3]; 32 and 16 in data set [4]; 8 mg/L (≈ 22.1 µM) in data set [5]; 16 mg/L (≈ 44.3 µM) in data set [8]. Moreover, the MIC in data set [10] is 8-16; in data set [15], 16 mg/L (≈ 44.3 µM); in [16] it was 16 mg/L (≈ 44.3 µM); in [17], more than 32 mg/L; in data set [18] it was more than 32 mg/L; in data set [19], 8 mg/L (≈ 22.1 µM). Further, in data set [20], the MIC fell in the range of 2 to 4 mg/L (≈ 5.53 to 11.1 µM). For the same molecule, the “decrease of thigh bacterial burden compared to vehicle group” value in data set [12] (20 mg/kg/dose oral at 2 h, 18 h post infection) is reported as approximately 5 log10 CFU/g; in [12] (50 mg/kg/dose oral at 2 h, 18 h post infection) it was approximately 5 log10 CFU/g. For the same molecule, in data set [12] (in vivo), the “body weights following infection” value is given as “unchanged”. Besides, the “Statistic analysis of thigh burden, P versus ML-83-009 20 mg/kg” value in [12] (substance at 20 mg/kg) is listed as “P = 0.0003”; in data set [12] (substance at 50 mg/kg), “P < 0.0001”. The “Statistic analysis of thigh burden, P versus ML-83-009 50 mg/kg” value in data set [12] (substance at 20 mg/kg) is “P = 0.0058”; in data set [12] (substance at 50 mg/kg), “P < 0.0001”. Also, the “Statistic analysis of thigh burden, P versus Vehicle” value in data set [12] (substance at 20 mg/kg) and in data set [12] (substance at 50 mg/kg) was “P < 0.0001” in each case. In addition, the “Statistic analysis of thigh burden, P versus Pre treatment” value in data set [12] (substance at 50 mg/kg) is on record as “P = 0.0084”. Besides, the Cmax in [13] (ICR (CD-1 IGS), in vivo, PO, 20.0 mg/kg, blood, Mean) came out at 2.95 µg/mL; in data set [13] (setting [26]) it was 3.89 µg/mL. For the same molecule, the half-life in [13] (setting [26]) is 0.5 h. Moreover, the AUC in [13] (setting [24]) is 3090 ng·h/mL and 8.55 µM·h; in [13] (setting [25]), 4260 ng·h/mL and 11.8 µM·h. Besides, the AUC(0-inf) in [13] (setting [24]) is 3310 ng·h/mL and 9.19 µM·h; in data set [13] (setting [25]), 5390 ng·h/mL and 14.9 µM·h. The MRT in data set [13] (setting [24]) was determined as 3 h. In [13] (setting [24]), this molecule registered a Vd of 4.5 L/kg. Moreover, the clearance in data set [13] (setting [24]) was determined as 1.51 L/h/kg. For the same molecule, the “Bioavailability (%) Using AUCo. t” value in data set [13] (setting [25]) turned out to be 34.5%. In [13] (setting [25]), the Tmax amounted to 0.5 h. The T1/2 in data set [13] (PO, 20.0 mg/kg, blood, Mean) was determined as 5.7 h.

Turning to `C[C@H]1COc2c(N3CCC(n4cccn4)CC3)c(F)cc3c(=O)c(C(=O)O)cn1c23` [ML-83-041, (S)-10-(4-(1H-pyrazol-1-yl)piperidin-1-yl)-9-fluoro-3-methyl-7-oxo-2,3-dihydro-7H-[1,4]oxazino[2,3,4-ij]quinoline-6-carboxylic Acid], the MIC is listed as 16-32 in data set [21], 64-128 in data set [22] and 1-2 in [23].

Values taken from US20210261570A1, “ANTIBIOTIC RESISTANCE BREAKERS” (KING'S COLLEGE LONDON, priority 2017, published 2021).
